Data reported in ChEMBL document CHEMBL1201862, “PubChem BioAssay data set” (2004).
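Compound exposure: 48 hours, 5 concentrations, 96-well plates. Here, GI50 denotes the concentration required for 50% inhibition of growth.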 Activity calls are given as the source filed them. No stated cut-off is given here; in the data, active = GI50 up to about 1.1 µM and inactive = higher.

Experiments:
Experiment in all cases: growth of human tumour cells (NCI), 48 h
[1] = system: SW-620
[2] = system: SR
[3] = system: EKVX
[4] = system: HL-60
[5] = system: SN12C
[6] = system: HCC 2998
[7] = system: OVCAR-5
[8] = system: NCI/ADR-RES
[9] = system: MCF7
[10] = system: COLO 205
[11] = system: HOP-62
[12] = system: K562
[13] = system: A498
[14] = system: SK-MEL-28
[15] = system: SK-MEL-2
[16] = system: UACC-62
[17] = system: BT-549
[18] = system: MDA-MB-231
[19] = system: HT-29
[20] = system: SF-539

With CCOC(CBr)OC1C(=O)OCC1(C)C (centres undefined) the GI50 [1] was > 100 µM (inactive), the GI50 [2] was > 100 µM (inactive) and the GI50 [3] was > 100 µM (inactive). The GI50 [4] was > 100 µM (inactive), the GI50 [5] was > 100 µM (inactive) and the GI50 [6] was > 100 µM (inactive). The GI50 [7] was > 100 µM (inactive), the GI50 [8] was > 100 µM (inactive) and the GI50 [9] was > 100 µM (inactive). For the same compound, the GI50 [10] was > 100 µM (inactive), the GI50 [11] was > 100 µM (inactive) and the GI50 [12] was > 100 µM (inactive). For the same compound, the GI50 [13] was > 100 µM (inactive), the GI50 [14] was > 100 µM (inactive) and the GI50 [15] was > 100 µM (inactive). The GI50 [16] was > 100 µM (inactive), the GI50 [17] was > 100 µM (inactive) and the GI50 [18] was > 100 µM (inactive). For the same compound, the GI50 [19] was > 100 µM (inactive).
O=c1[nH]nc(Cc2ccccc2)n1/N=C/c1ccccc1Cl was tested, and the GI50 [1] was > 100 µM (inactive), the GI50 [2] was > 100 µM (inactive) and the GI50 [3] was > 100 µM (inactive). The GI50 [5] was > 100 µM (inactive), the GI50 [6] was > 100 µM (inactive) and the GI50 [7] was > 100 µM (inactive). For the same compound, the GI50 [8] was > 100 µM (inactive), the GI50 [9] was > 100 µM (inactive) and the GI50 [10] was > 100 µM (inactive). The GI50 [12] was > 100 µM (inactive), the GI50 [20] was > 100 µM (inactive) and the GI50 [13] was > 100 µM (inactive). The GI50 [15] was > 100 µM (inactive), the GI50 [16] was > 100 µM (inactive) and the GI50 [17] was > 100 µM (inactive). For the same compound, the GI50 [18] was > 100 µM (inactive) and the GI50 [19] was > 100 µM (inactive).
For CCN(CC)C(=O)COc1cc2c(O)c3c(O)c(C)c4c(c13)C(=O)C(C)(OC=CC(OC)C(C)C(OC(C)=O)C(C)C(O)C(C)C(O)C(C)C=CC=C(C)C(=O)N2)O4 (centres undefined), the GI50 [1] was > 100 µM (inactive), the GI50 [2] was > 100 µM (inactive) and the GI50 [3] was > 100 µM (inactive). For the same compound, the GI50 [5] was > 100 µM (inactive), the GI50 [6] was > 100 µM (inactive) and the GI50 [7] was > 100 µM (inactive). The GI50 [8] was > 100 µM (inactive), the GI50 [9] was > 100 µM (inactive) and the GI50 [11] was > 100 µM (inactive). For the same compound, the GI50 [12] was > 100 µM (inactive), the GI50 [13] was > 100 µM (inactive) and the GI50 [14] was > 100 µM (inactive). For the same compound, the GI50 [15] was > 100 µM (inactive), the GI50 [16] was > 100 µM (inactive) and the GI50 [17] was > 100 µM (inactive). The GI50 [18] was > 100 µM (inactive) and the GI50 [19] was > 100 µM (inactive).
For COc1ccc2c(c1OC)C(=O)O[C@@H]2[C@H]1c2cc3c(cc2CCN1C)OCO3, the GI50 [1] was > 100 µM (inactive), the GI50 [2] was > 100 µM (inactive) and the GI50 [3] was > 100 µM (inactive). The GI50 [4] was > 100 µM (inactive), the GI50 [5] was > 100 µM (inactive) and the GI50 [6] was > 100 µM (inactive). The GI50 [7] was > 100 µM (inactive), the GI50 [8] was > 100 µM (inactive) and the GI50 [9] was > 100 µM (inactive). For the same compound, the GI50 [10] was > 100 µM (inactive), the GI50 [11] was > 100 µM (inactive) and the GI50 [12] was > 100 µM (inactive). The GI50 [20] was > 100 µM (inactive), the GI50 [13] was > 100 µM (inactive) and the GI50 [15] was > 100 µM (inactive). The GI50 [16] was > 100 µM (inactive), the GI50 [17] was > 100 µM (inactive) and the GI50 [18] was > 100 µM (inactive). The GI50 [19] was > 100 µM (inactive).
With CC(=O)O[C@H]1C(=O)[C@@]2(C)[C@H]([C@H](OC(=O)c3ccc([N+](=O)[O-])cc3)[C@]3(O)C[C@H](OC(=O)[C@H](O)[C@@H](NC(=O)c4ccccc4)c4ccccc4)C(C)=C1C3(C)C)[C@]1(OC(C)=O)CO[C@@H]1C[C@@H]2O the GI50 [1] was > 25 µM (inactive), the GI50 [2] was > 25 µM (inactive) and the GI50 [3] was > 25 µM (inactive). For the same compound, the GI50 [4] was > 25 µM (inactive), the GI50 [5] was > 25 µM (inactive) and the GI50 [6] was > 25 µM (inactive). The GI50 [7] was > 25 µM (inactive), the GI50 [8] was > 25 µM (inactive) and the GI50 [9] was > 25 µM (inactive). For the same compound, the GI50 [10] was > 25 µM (inactive), the GI50 [11] was > 25 µM (inactive) and the GI50 [12] was > 25 µM (inactive). The GI50 [20] was > 25 µM (inactive), the GI50 [13] was > 25 µM (inactive) and the GI50 [14] was > 25 µM (inactive). For the same compound, the GI50 [16] was > 25 µM (inactive), the GI50 [17] was > 25 µM (inactive) and the GI50 [18] was > 25 µM (inactive). For the same compound, the GI50 [19] was > 25 µM (inactive).
For CC(=O)NC1C(OCc2ccccc2)OC(CO)C(O)C1OCC(=O)N[C@@H](C)C(=O)N[C@H](CCC(=O)NCCCCNc1c2ccccc2nc2cccc([N+](=O)[O-])c12)C(N)=O (some centres undefined), the GI50 [1] was 0.618 µM (active), the GI50 [2] was 1.07 µM (active) and the GI50 [3] was 2.07 µM (inactive). The GI50 [5] was 2.25 µM (inactive), the GI50 [6] was 0.682 µM (active) and the GI50 [7] was 3.56 µM (inactive). The GI50 [8] was 16.7 µM (inactive), the GI50 [9] was 0.771 µM (active) and the GI50 [10] was 0.684 µM (active). For the same compound, the GI50 [11] was 3.69 µM (inactive), the GI50 [12] was 1.13 µM (inactive) and the GI50 [20] was 0.731 µM (active). The GI50 [13] was 2.16 µM (inactive), the GI50 [14] was 4.5 µM (inactive) and the GI50 [15] was 2.51 µM (inactive). The GI50 [16] was 1.51 µM (inactive), the GI50 [17] was 2.74 µM (inactive) and the GI50 [18] was 2.5 µM (inactive). For the same compound, the GI50 [19] was 1.18 µM (inactive).
CCN1C[C@]2(C)CC[C@H](OCc3ccccc3)C34C5C[C@@H]6CC[C@](O)(C(C[C@@H]32)C14)C5[C@H]6OCc1ccccc1 (some centres undefined) was tested, and the GI50 [1] was > 100 µM (inactive), the GI50 [2] was 54.8 µM (inactive) and the GI50 [3] was 44.7 µM (inactive). The GI50 [5] was > 100 µM (inactive), the GI50 [6] was 20 µM (inactive) and the GI50 [7] was > 100 µM (inactive). For the same compound, the GI50 [8] was > 100 µM (inactive), the GI50 [9] was 7.01 µM (inactive) and the GI50 [10] was 42 µM (inactive). The GI50 [11] was > 100 µM (inactive), the GI50 [12] was 55.6 µM (inactive) and the GI50 [20] was > 100 µM (inactive). The GI50 [13] was > 100 µM (inactive), the GI50 [14] was > 100 µM (inactive) and the GI50 [15] was 83.9 µM (inactive). The GI50 [16] was > 100 µM (inactive), the GI50 [17] was > 100 µM (inactive) and the GI50 [18] was 52.1 µM (inactive). For the same compound, the GI50 [19] was 55.2 µM (inactive).
